Measurements reported in US11679111B2, “Fatty acid synthase inhibitors” (priority 2016, dated 2023).
Like-named read-outs stand apart in the source and are kept apart here.

Legend:
BT474 cells = assay: Acetate and glucose incorporation into lipids in HER2+ BT474 breast cancer cell line; type: cell-based; conditions: Homo sapiens
Description: Incorporation of radiolabeled glucose or acetate in total lipids was measured according to published methods (Haystead and Hardie, 1986). HepG2 cells (80% confluent in 12 wells plates) were starved overnight in MEM Alpha, the medium was then changed with DMEM medium containing 0.1 g/L glucose 10% FBS and 5 μM insulin and 1 μCi 3-[^3H] D-glucose or 1 μCi [^3H]-acetate in addition to different concentrations of each compound. After incubation for 1 hour at 37° C., 5% CO2, the cells were washed with ice cold PBS and detached by treating with 100 μl trypsin for 10 min then 1 ml of ice cold PBS was added. The cells suspension was then sonicated for 3 times in 30 seconds intervals and kept on ice. From each well 1 ml of cell lysate was added to a 4 ml scintillation vial and 2 ml of MicroScint-E was added. The vials were mixed thoroughly then centrifuged for 30 min at 3000 rpm and the ^3H radioactivity was measured by liquid scintillation counting.
T474 cells were seeded in 6 well plates in 10% FBS 4.5 g/L glucose DMEM at a density of 400,000 cells/well. After 24 hours the media was changed with 0.1 g/L glucose DMEM containing different concentrations of HS-106. […] To each fraction, 1 ml of 25 g/L Butyl PBD dissolved in Toluene was added and radioactivity was measured by scintillation counting.

human FASN = molecular target: T1, human FASN (Homo sapiens, UniProt P49327); assay: FASN activity assay, 2-[14C] malonyl CoA incorporation into lipids by purified enzyme; type: biochemical
T1 construct: endogenous in cells; host or cells: BT474 cells; endogenous enzyme purified by ammonium sulfate cuts and Sephacryl S-300 gel filtration, about 85% pure
T1 sequence (P49327 whole entry): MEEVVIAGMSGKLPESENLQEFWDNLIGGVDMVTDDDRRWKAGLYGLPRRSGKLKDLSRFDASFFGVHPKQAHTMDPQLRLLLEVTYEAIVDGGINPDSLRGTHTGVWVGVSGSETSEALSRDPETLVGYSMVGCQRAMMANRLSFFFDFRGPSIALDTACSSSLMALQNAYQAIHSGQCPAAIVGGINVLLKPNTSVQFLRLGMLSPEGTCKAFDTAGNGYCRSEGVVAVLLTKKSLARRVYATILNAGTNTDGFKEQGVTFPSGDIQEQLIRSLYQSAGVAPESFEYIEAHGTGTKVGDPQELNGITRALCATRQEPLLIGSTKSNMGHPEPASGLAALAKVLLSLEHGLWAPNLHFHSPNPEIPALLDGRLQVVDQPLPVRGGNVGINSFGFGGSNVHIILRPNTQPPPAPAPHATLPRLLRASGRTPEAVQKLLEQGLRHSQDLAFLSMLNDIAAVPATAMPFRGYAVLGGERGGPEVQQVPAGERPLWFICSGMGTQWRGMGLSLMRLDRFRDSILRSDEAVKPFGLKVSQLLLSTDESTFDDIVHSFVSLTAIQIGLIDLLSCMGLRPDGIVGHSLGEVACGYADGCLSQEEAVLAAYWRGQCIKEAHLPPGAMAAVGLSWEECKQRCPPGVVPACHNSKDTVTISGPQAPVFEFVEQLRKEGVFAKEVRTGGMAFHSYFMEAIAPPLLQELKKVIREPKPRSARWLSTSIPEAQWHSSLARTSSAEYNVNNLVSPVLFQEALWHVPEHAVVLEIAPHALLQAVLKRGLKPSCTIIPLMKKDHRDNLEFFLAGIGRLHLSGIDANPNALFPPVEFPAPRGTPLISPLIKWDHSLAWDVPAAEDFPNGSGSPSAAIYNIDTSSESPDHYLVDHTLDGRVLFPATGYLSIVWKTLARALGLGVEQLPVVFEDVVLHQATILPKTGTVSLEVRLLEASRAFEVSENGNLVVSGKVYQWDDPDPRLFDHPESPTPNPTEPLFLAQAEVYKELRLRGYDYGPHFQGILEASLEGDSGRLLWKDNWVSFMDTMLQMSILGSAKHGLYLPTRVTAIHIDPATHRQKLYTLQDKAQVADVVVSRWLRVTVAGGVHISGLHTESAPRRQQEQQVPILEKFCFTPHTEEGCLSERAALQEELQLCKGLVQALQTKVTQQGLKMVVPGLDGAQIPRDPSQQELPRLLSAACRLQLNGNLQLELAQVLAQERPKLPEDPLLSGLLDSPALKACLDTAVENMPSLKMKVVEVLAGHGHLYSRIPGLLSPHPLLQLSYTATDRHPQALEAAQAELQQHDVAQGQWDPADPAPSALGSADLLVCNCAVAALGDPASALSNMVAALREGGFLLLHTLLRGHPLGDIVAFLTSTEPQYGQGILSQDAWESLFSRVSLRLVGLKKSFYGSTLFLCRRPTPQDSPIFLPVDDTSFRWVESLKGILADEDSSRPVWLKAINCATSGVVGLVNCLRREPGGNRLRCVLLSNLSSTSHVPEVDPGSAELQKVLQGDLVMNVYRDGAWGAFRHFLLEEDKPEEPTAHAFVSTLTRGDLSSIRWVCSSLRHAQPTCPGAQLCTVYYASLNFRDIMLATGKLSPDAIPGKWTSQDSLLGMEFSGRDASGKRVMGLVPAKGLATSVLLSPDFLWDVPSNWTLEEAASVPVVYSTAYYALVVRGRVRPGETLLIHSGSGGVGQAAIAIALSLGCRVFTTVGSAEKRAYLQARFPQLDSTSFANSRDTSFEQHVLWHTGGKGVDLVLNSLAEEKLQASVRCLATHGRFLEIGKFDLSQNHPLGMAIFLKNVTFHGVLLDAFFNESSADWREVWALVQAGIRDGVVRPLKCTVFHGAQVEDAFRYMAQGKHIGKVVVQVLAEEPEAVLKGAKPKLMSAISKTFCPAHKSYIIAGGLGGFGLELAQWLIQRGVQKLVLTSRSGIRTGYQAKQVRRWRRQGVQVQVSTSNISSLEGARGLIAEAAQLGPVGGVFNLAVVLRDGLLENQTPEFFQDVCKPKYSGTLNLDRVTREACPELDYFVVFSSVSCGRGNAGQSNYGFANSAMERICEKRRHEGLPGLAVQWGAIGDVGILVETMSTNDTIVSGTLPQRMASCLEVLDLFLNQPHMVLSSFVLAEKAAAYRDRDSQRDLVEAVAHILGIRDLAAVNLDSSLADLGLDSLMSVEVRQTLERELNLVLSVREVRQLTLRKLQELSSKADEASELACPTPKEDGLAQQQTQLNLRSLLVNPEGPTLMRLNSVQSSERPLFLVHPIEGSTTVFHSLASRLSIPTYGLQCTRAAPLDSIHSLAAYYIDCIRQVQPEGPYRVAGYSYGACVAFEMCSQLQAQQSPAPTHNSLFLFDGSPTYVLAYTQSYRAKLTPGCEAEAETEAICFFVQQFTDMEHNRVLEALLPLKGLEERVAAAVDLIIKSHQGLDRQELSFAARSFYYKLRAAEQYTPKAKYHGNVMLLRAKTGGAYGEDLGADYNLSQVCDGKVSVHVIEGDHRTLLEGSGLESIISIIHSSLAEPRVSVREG
Description: Human FASN activity was measured by monitoring the incorporation of 2-[^14C] malonyl CoA into fatty acids using liquid scintillation counting by a method similar to the one described by Richardson et al (Richardson and Smith, 2007). FASN (10 μg/ml of PBS containing 1 mM DTT and 1 mM EDTA) was pre-incubated with different concentrations of HS-106 (final DMSO concentration 1%) at 37° C. for 30 minutes, then substrates were added (20 μM acetyl CoA and 200 μM NADPH) in a total reaction volume of 100 μl. The reaction was initiated by adding 10 μl of 50 μM malonyl CoA spiked with 0.05 μCi of 2-[^14C] malonyl CoA. After incubation for 30 minutes at 37° C., lipids were extracted 3 times with 150 μl (2:1, v/v) chloroform:methanol. Then, to the pooled organic phases, 1 ml of toluene containing 25 g/L Butyl-PBD was added and radioactivity was measured by liquid scintillation counting.
Confluent BT474 cells grown in high glucose DMEM with 10% FBS, were scraped and washed two times with ice cold PBS. […]
Human FASN activity was measured by monitoring the incorporation of 2-[^14C] […] Then, to the pooled organic phase, 1 ml of Toluene containing […] Butyl PBD was added and radioactivity was measured by scintillation counting. […]

Cc1sc2ncnc(NC3CCN(Cc4ccccc4)C3)c2c1C (racemic) [HS-106, N-(1-benzylpyrrolidin-3-yI)-5,6-dimethylthieno[2,3-d]pyrimidin-4-amine]
IC50 (BT474 cells; BT-474, acetate as tracer, read-out: IC50, acetate incorporation into total lipids): ~1500 nM
IC50 (BT474 cells; BT-474, glucose as tracer, read-out: IC50, glucose incorporation into total lipids): 1660 nM
IC50 (human FASN): 3710 nM
IC50 (human FASN; FIG. 2E, read-out: IC50, native human FASN (purified)): 46 nM
